Test results: patent US12077503B2, “Substituted cyclic amides and their use as herbicides” (FMC CORPORATION, priority 2015, dated 2024)

Assays:
Type in all cases: in vivo
[1] = test system: ragweed (common ragweed, Ambrosia elatior); experiment: Test A preemergence; conditions: Ambrosia artemisiifolia, pre-emergence, 240 h, 0 to 100 scale where 0 is no effect and 100 is complete control, read-out: Ragweed plant response rating; for pest or weed control at 31 g/ha: 31 g ai/ha, Preemergence; for pest or weed control at 125 g/ha: 125 g ai/ha, preemergence, approx. 10 d
In short: (§1)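 In a loam soil and sand blend, planted seeds got a preemergence directed soil spray, and young plants at the one- to two-leaf stage, 2–10 cm high, got a postemergence application; ~10 d greenhouse hold; injury rated visually, 0 = none, 100 = complete control.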

[2] = test system: Kochia (Kochia scoparia); experiment: Test A preemergence; conditions: Bassia scoparia, pre-emergence, 240 h, 0 to 100 scale where 0 is no effect and 100 is complete control, read-out: Kochia plant response rating; for pest or weed control at 31 g/ha: 31 g ai/ha, Preemergence; for pest or weed control at 125 g/ha: 125 g ai/ha, preemergence, approx. 10 d
In short: as §1

[3] = test system: ryegrass, Italian (Italian ryegrass, Lolium multiflorum); experiment: Test A preemergence; conditions: Lolium multiflorum, pre-emergence, 240 h, 0 to 100 scale where 0 is no effect and 100 is complete control, read-out: Ryegrass, Italian plant response rating; for pest or weed control at 31 g/ha: 31 g ai/ha, Preemergence; for pest or weed control at 125 g/ha: 125 g ai/ha, preemergence, approx. 10 d
In short: as §1

[4] = test system: pigweed (Amaranthus retroflexus); experiment: Test A preemergence; conditions: Amaranthus retroflexus, pre-emergence, 240 h, 0 to 100 scale where 0 is no effect and 100 is complete control, read-out: Pigweed plant response rating; for pest or weed control at 31 g/ha: 31 g ai/ha, Preemergence; for pest or weed control at 125 g/ha: 125 g ai/ha, preemergence, approx. 10 d
[5] = test system: giant foxtail (Setaria faberii); experiment: Test A preemergence; conditions: Setaria faberi, pre-emergence, 240 h, 0 to 100 scale where 0 is no effect and 100 is complete control, read-out: Foxtail, Giant plant response rating; for pest or weed control at 31 g/ha: 31 g ai/ha, Preemergence; for pest or weed control at 125 g/ha: 125 g ai/ha, preemergence, approx. 10 d
In short: as §1

[6] = test system: barnyardgrass (Echinochloa crus-galli); experiment: Test A preemergence; conditions: Echinochloa crus-galli, pre-emergence, 240 h, 0 to 100 scale where 0 is no effect and 100 is complete control, read-out: Barnyardgrass plant response rating; for pest or weed control at 31 g/ha: 31 g ai/ha, Preemergence; for pest or weed control at 125 g/ha: 125 g ai/ha, preemergence, approx. 10 d
In short: as §1

[7] = test system: sedge, umbrella (small-flower umbrella sedge, Cyperus difformis); experiment: Test B flooded paddy test; conditions: Cyperus difformis, 250 g ai/ha, Flood; 0 to 100 scale where 0 is no effect and 100 is complete control; read-out: Sedge, Umbrella plant response rating
In short: (§2)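 2-leaf plants; pots flooded 3 cm over soil; cpd added to paddy water; depth held; greenhouse 13–15 d; visual rating vs controls, 0 = no effect, 100 = complete control.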

[8] = test system: ducksalad (Heteranthera limosa); experiment: Test B flooded paddy test; conditions: Heteranthera limosa, 250 g ai/ha, Flood; 0 to 100 scale where 0 is no effect and 100 is complete control; read-out: Ducksalad plant response rating
In short: as §2

[9] = test system: rice (Oryra sativa); experiment: Test B flooded paddy test; conditions: Oryza sativa, 250 g ai/ha, Flood; 0 to 100 scale where 0 is no effect and 100 is complete control; read-out: Rice plant response rating
In short: as §2

[10] = test system: barnyardgrass (Echinochloa crus-galli); experiment: Test B flooded paddy test; conditions: Echinochloa crus-galli, 250 g ai/ha, Flood; 0 to 100 scale where 0 is no effect and 100 is complete control; read-out: Barnyardgrass plant response rating
In short: as §2

[11] = test system: ragweed (common ragweed, Ambrosia elatior); experiment: Test A postemergence; conditions: Ambrosia artemisiifolia, post-emergence, 240 h; for pest or weed control at 125 g/ha: 125 g ai/ha, postemergence, visual injury on 0 to 100 scale (0 no effect, 100 complete control), approx. 10 d, read-out: Ragweed plant response rating; for pest or weed control at 31 g/ha: Postemergence, 31 g ai/ha, visual injury after approx. 10 d, 0 to 100 scale, 0 no effect, 100 complete control, read-out: Plant response rating, Ragweed
In short: as §1

[12] = test system: corn (Zea mays); experiment: Test A postemergence; conditions: Zea mays, post-emergence, 240 h; for plant injury at 125 g/ha: 125 g ai/ha, postemergence, visual injury on 0 to 100 scale (0 no effect, 100 complete control), approx. 10 d, read-out: Corn plant response rating; for Corn plant response rating (crop injury, 0 = no effect, 100 = complete kill) at 31 g/ha: Postemergence, 31 g ai/ha, visual injury after approx. 10 d, 0 to 100 scale, 100 complete control
In short: as §1

[13] = test system: Kochia (Kochia scoparia); experiment: Test A postemergence; conditions: Bassia scoparia, post-emergence, 240 h; for pest or weed control at 125 g/ha: 125 g ai/ha, postemergence, visual injury on 0 to 100 scale (0 no effect, 100 complete control), approx. 10 d, read-out: Kochia plant response rating; for pest or weed control at 31 g/ha: Postemergence, 31 g ai/ha, visual injury after approx. 10 d, 0 to 100 scale, 0 no effect, 100 complete control, read-out: Plant response rating, Kochia
In short: as §1

[14] = test system: Galium (catchweed bedstraw, Galium aparine); experiment: Test A postemergence; conditions: Galium, post-emergence, 240 h; for pest or weed control at 125 g/ha: 125 g ai/ha, postemergence, visual injury on 0 to 100 scale (0 no effect, 100 complete control), approx. 10 d, read-out: Galium plant response rating; for pest or weed control at 31 g/ha: Postemergence, 31 g ai/ha, visual injury after approx. 10 d, 0 to 100 scale, 0 no effect, 100 complete control, read-out: Plant response rating, Galium
In short: as §1

[15] = test system: ryegrass, Italian (Italian ryegrass, Lolium multiflorum); experiment: Test A postemergence; conditions: Lolium multiflorum, post-emergence, 240 h; for pest or weed control at 125 g/ha: 125 g ai/ha, postemergence, visual injury on 0 to 100 scale (0 no effect, 100 complete control), approx. 10 d, read-out: Ryegrass, Italian plant response rating; for pest or weed control at 31 g/ha: Postemergence, 31 g ai/ha, visual injury after approx. 10 d, 0 to 100 scale, 0 no effect, 100 complete control, read-out: Plant response rating, Ryegrass, Italian
In short: as §1

[16] = test system: pigweed (Amaranthus retroflexus); experiment: Test A postemergence; conditions: Amaranthus retroflexus, post-emergence, 240 h; for pest or weed control at 125 g/ha: 125 g ai/ha, postemergence, visual injury on 0 to 100 scale (0 no effect, 100 complete control), approx. 10 d, read-out: Pigweed plant response rating; for pest or weed control at 31 g/ha: Postemergence, 31 g ai/ha, visual injury after approx. 10 d, 0 to 100 scale, 0 no effect, 100 complete control, read-out: Plant response rating, Pigweed
In short: as §1

[17] = test system: wheat (Triticum aestivum); experiment: Test A postemergence; conditions: Triticum aestivum, post-emergence, 240 h; for plant injury at 125 g/ha: 125 g ai/ha, postemergence, visual injury on 0 to 100 scale (0 no effect, 100 complete control), approx. 10 d, read-out: Wheat plant response rating; for plant injury at 31 g/ha: Postemergence, 31 g ai/ha, visual injury after approx. 10 d, 0 to 100 scale, 0 no effect, 100 complete control, read-out: Plant response rating, Wheat
In short: as §1

[18] = test system: giant foxtail (Setaria faberii); experiment: Test A postemergence; conditions: Setaria faberi, post-emergence, 240 h; for pest or weed control at 125 g/ha: 125 g ai/ha, postemergence, visual injury on 0 to 100 scale (0 no effect, 100 complete control), approx. 10 d, read-out: Foxtail, Giant plant response rating; for pest or weed control at 31 g/ha: Postemergence, 31 g ai/ha, visual injury after approx. 10 d, 0 to 100 scale, 0 no effect, 100 complete control, read-out: Plant response rating, Foxtail, Giant
In short: as §1

[19] = test system: blackgrass (Alopecurus myosuroides); experiment: Test A postemergence; conditions: Alopecurus myosuroides, post-emergence, 240 h; for pest or weed control at 125 g/ha: 125 g ai/ha, postemergence, visual injury on 0 to 100 scale (0 no effect, 100 complete control), approx. 10 d, read-out: Blackgrass plant response rating; for pest or weed control at 31 g/ha: Postemergence, 31 g ai/ha, visual injury after approx. 10 d, 0 to 100 scale, 0 no effect, 100 complete control, read-out: Plant response rating, Blackgrass
In short: as §1

[20] = test system: barnyardgrass (Echinochloa crus-galli); experiment: Test A postemergence; conditions: Echinochloa crus-galli, post-emergence, 240 h; for pest or weed control at 125 g/ha: 125 g ai/ha, postemergence, visual injury on 0 to 100 scale (0 no effect, 100 complete control), approx. 10 d, read-out: Barnyardgrass plant response rating; for pest or weed control at 31 g/ha: Postemergence, 31 g ai/ha, visual injury after approx. 10 d, 0 to 100 scale, 0 no effect, 100 complete control, read-out: Plant response rating, Barnyardgrass
In short: as §1

| SMILES | pest or weed control at 31 g/ha [1] [%] | pest or weed control at 125 g/ha [1] [%] | pest or weed control at 31 g/ha [2] [%] | pest or weed control at 125 g/ha [2] [%] | pest or weed control at 31 g/ha [3] [%] | pest or weed control at 125 g/ha [3] [%] | pest or weed control at 31 g/ha [4] [%] | pest or weed control at 125 g/ha [4] [%] | pest or weed control at 31 g/ha [5] [%] | pest or weed control at 125 g/ha [5] [%] | pest or weed control at 31 g/ha [6] [%] | pest or weed control at 125 g/ha [6] [%] | pest or weed control at 250 g/ha [7] [%] | pest or weed control at 250 g/ha [8] [%] | pest or weed control at 250 g/ha [9] [%] | pest or weed control at 250 g/ha [10] [%] | pest or weed control at 125 g/ha [11] [%] | pest or weed control at 31 g/ha [11] [%] | plant injury at 125 g/ha [12] [%] | Corn plant response rating (crop injury, 0 = no effect, 100 = complete kill) at 31 g/ha [12] [%] | other results |
| --- | --- | --- | --- | --- | --- | --- | --- | --- | --- | --- | --- | --- | --- | --- | --- | --- | --- | --- | --- | --- | --- |
| CN1C[C@H](c2cc(C(F)F)cs2)[C@@H](C(=O)Nc2ccc(F)c(F)c2F)C1=O [Compound 1083] | 0 | 80 | 20 | 90 | 20 | 60 | 0 | 20 | 100 | 100 | 90 | 100 | 0 | 95 | 40 | 90 | 30 | 0 | 40 | 20 | pest or weed control at 125 g/ha [13]: 40%; pest or weed control at 31 g/ha [13]: 20%; pest or weed control at 125 g/ha [14]: 70%; pest or weed control at 31 g/ha [14]: 60%; pest or weed control at 125 g/ha [15]: 20%; pest or weed control at 31 g/ha [15]: 0%; pest or weed control at 125 g/ha [16]: 20%; pest or weed control at 31 g/ha [16]: 0%; plant injury at 125 g/ha [17]: 40%; plant injury at 31 g/ha [17]: 40%; pest or weed control at 125 g/ha [18]: 90%; pest or weed control at 31 g/ha [18]: 80%; pest or weed control at 125 g/ha [19]: 60%; pest or weed control at 31 g/ha [19]: 50%; pest or weed control at 125 g/ha [20]: 90%; pest or weed control at 31 g/ha [20]: 90% |
| CN1C[C@H](c2cc(C(F)F)cs2)[C@@H](C(=O)Nc2ccccc2S(C)(=O)=O)C1=O [Compound 1084] | 0 | 10 | 0 | 20 | 0 | 10 | 0 | 0 | 30 | 100 | 0 | 70 | 0 | 100 | 20 | 75 | 0 | 0 | 0 | 0 | pest or weed control at 125 g/ha [13]: 30%; pest or weed control at 31 g/ha [13]: 0%; pest or weed control at 125 g/ha [14]: 0%; pest or weed control at 31 g/ha [14]: 0%; pest or weed control at 125 g/ha [15]: 0%; pest or weed control at 31 g/ha [15]: 0%; pest or weed control at 125 g/ha [16]: 0%; pest or weed control at 31 g/ha [16]: 0%; plant injury at 125 g/ha [17]: 20%; plant injury at 31 g/ha [17]: 0%; pest or weed control at 125 g/ha [18]: 50%; pest or weed control at 31 g/ha [18]: 0%; pest or weed control at 125 g/ha [19]: 20%; pest or weed control at 31 g/ha [19]: 0%; pest or weed control at 125 g/ha [20]: 60%; pest or weed control at 31 g/ha [20]: 10% |
